Biological target: T1, ER beta receptor (Homo sapiens, UniProt Q92731)
T1 construct: purchased PanVera
Assay: Competition ER binding assay (3H-Estradiol displacement)
Details: for Ratio of Ki(nM)ER alpha/Ki(nM) ER beta: selectivity ratio Ki ER alpha / Ki ER beta, Ki from IC50 by Cheng-Prusoff, 3H-Estradiol, ERAlpha or ERbeta Receptor (PanVera)
Procedure: The competition ER binding assay was run in a buffer containing 50 mM N-[2-hydroxyethyl]piperazine-N′-[2-ethanesulfonic acid (Hepes) pH 7.5, 1.5 mM EDTA, 150 mM NaCl, 10% glycerol, 1 mg/mL ovalbumin, 5 mM DTT, 0.025 μCi per well of ^3H-Estradiol(NEN #NET517 at 118 Ci/mmol, 1 mCi/mL), and 10 ng/well ERAlpha or ERbeta Receptor (PanVera). Competing compounds were added at 10 different concentrations. Non-specific binding was determined in the presence of 1 μM of E2 (17-β Estradiol, Sigma, St. Louis, Mo.). The binding reaction (140 μL) was incubated for 4 hours at room temperature, then 70 μL of cold dextran coated charcoal (DCC) buffer was added to each reaction (DCC buffer was prepared by adding 0.75 g of charcoal[Sigma] and 0.25 g of dextran [Pharmacia] per 50 mL of assay buffer). The incubation plates were mixed for 8 minutes on an orbital shaker at 4° C. and then centrifuged at 3,000 rpm for 10 minutes at 4° C. An aliquot of 120 μl of the mix was transferred to another 96-well, white flat bottom plate (Costar) and 175 μl of Wallac Optiphase Hisafe 3 scintillation fluid was added to each well. The plates were sealed and then shaken vigorously on an orbital shaker. After an incubation of 2.5 hrs, the radioactivity was counted in a Wallac Microbeta counter. […] The Kd for ^3H-Estradiol was determined by saturation binding to ERα and ERβ receptors. The IC50 values for compounds were converted to Ki values using the Cheng-Prusoff equation and the Kd values were determined by saturation binding assay.

T1 sequence (Q92731 whole entry): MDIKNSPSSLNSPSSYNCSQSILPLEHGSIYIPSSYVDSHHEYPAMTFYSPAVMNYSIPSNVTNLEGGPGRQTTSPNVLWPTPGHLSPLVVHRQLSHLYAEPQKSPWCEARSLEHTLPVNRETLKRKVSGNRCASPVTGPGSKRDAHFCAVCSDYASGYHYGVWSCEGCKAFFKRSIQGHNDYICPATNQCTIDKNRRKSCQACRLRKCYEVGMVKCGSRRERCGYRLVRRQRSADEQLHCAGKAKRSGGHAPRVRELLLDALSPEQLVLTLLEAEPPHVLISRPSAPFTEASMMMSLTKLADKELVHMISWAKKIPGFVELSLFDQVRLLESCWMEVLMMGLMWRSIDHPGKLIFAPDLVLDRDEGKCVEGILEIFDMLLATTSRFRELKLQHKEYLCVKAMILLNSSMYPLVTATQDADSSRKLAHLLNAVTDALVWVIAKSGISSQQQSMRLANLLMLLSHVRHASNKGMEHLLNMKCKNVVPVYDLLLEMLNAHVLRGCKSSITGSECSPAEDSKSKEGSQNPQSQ

Row | activity in the ER binding assay | Ratio of Ki(nM)ER alpha/Ki(nM) ER beta | SMILES
1 | active | 5.0 | Oc1ccc2c(c1)[C@H]1CCC[C@H]1[C@@H](c1ccc(F)cc1)O2 (racemic) [Example 2, (±)-2-(4-Fluorophenyl)-6-hydroxy-cyclopentyl[c]3,4-dihydro-2H-1-benzopyran]
2 | active | 2.6 | CCc1ccc([C@H]2Oc3ccc(O)cc3[C@H]3CCC[C@H]32)cc1 (racemic) [Example 3, (±)-2-(4-ethylphenyl)-6-hydroxy-cyclopentyl[c]3,4-dihydro-2H-1-benzopyran]
3 | active | 6.9 | Oc1ccc2c(c1)[C@H]1CCC[C@H]1[C@@H](c1ccc(C(F)(F)F)cc1)O2 (racemic) [Example 4, (±)-2-(4-Trifluoromethylphenyl)-6-hydroxy-cyclopentyl[c]3,4-dihydro-2H-1-benzopyran]
4 | active | 12.6 | Cc1ccc([C@H]2Oc3ccc(O)cc3[C@H]3CCC[C@H]32)cc1 (racemic) [Example 6, (±)-2-(4-Methylphenyl)-6-hydroxy-cyclopentyl[c]3,4-dihydro-2H-1-benzopyran]

From US6630508B1, “Substituted benzopyrans as selective estrogen receptor β agonists” (Eli Lilly and Company, priority 2002, dated 2003)
